Source: patent publication US5036054A, “Renin inhibitors containing alpha-heteroatom amino acids” (Warner-Lambert Company, priority 1988, dated 1991)

These molecules were tested against T1, renin (Homo sapiens, UniProt P00797) (assay: in vitro renin inhibitory activity, radioimmunoassay for angiotensin I). Conditions: 10^-6 molar test compound; renin incubated 2 hours at 37° with substrate angiotensinogen; angiotensin I by radioimmunoassay.
T1 sequence (P00797 67-406): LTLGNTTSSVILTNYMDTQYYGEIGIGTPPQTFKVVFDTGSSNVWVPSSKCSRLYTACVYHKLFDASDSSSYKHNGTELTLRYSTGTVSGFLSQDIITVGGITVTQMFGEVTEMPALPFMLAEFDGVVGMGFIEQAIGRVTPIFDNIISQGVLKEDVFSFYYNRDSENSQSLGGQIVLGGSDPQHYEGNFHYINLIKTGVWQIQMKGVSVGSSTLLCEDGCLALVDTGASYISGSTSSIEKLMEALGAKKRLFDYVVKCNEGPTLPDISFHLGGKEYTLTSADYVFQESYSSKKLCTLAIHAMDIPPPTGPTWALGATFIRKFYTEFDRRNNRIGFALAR
Type: biochemical
Method: The effectiveness of the aforementioned compounds is determined by a test for in vitro renin inhibitory activity. This activity is determined by a standard radioimmunoassay for angiotensin I. In this assay the enzyme, renin, incubated for 2 hours at 37° in the presense of a substrate, angiotensinogen, generates the product, angiotensin I. Test compounds are added to the incubation mixture. Relative activity is reported as the percent inhibition at 10^-6 molar concentration.
“DNMA-NHCH(OC2 H5)CO-STA-NHCH2 CH(CH3)CH2 CH3 [DNMANHCH(OC2 H5)COSTANHCH2 CH(CH3)CH2 CH3 (slow isomer)]” was tested, and the “Activity % Inhibition @ 10^-6 M” value was 15%.
For `CCC(C)CNC(=O)CC(O)C(CC(C)C)NC(=O)C(NC(=O)C(Cc1cccc2ccccc12)Cc1cccc2ccccc12)SC(C)C` (single isomer, unassigned) [DNMANHCH(SCH(CH3)2)COSTANHCH2 CH(CH3)CH2 CH3 (slow isomer), DNMA-NHCH(SCH(CH3)2)CO-STA-NHCH2 CH(CH3)CH2 CH3], the “Activity % Inhibition @ 10^-6 M” value was 26%.
With `CCC(C)CNC(=O)CC(O)C(CC(C)C)NC(=O)C(NC(=O)C(Cc1cccc2ccccc12)Cc1cccc2ccccc12)[S+](C)[O-]` (centres unmarked) [DNMANHCH(SOCH3)COSTANHCH2 CH(CH3)CH2 CH3, DNMA-NHCH(SOCH3)CO-STA-NHCH2 CH(CH3)CH2 CH3] the “Activity % Inhibition @ 10^-6 M” value was 35%.
With `CCC(C)CNC(=O)CC(O)C(CC(C)C)NC(=O)C(NC(=O)C(Cc1cccc2ccccc12)Cc1cccc2ccccc12)SC(C)C` (single isomer, unassigned) [DNMANHCH(SCH(CH3)2)COSTANHCH2 CH(CH3)CH2 CH3 (fast isomer), DNMA-NHCH(SCH(CH3)2)CO-STA-NHCH2 CH(CH3)CH2 CH3] the “Activity % Inhibition @ 10^-6 M” value was 87%.
For `CCC(C)CNC(=O)CC(O)C(CC(C)C)NC(=O)C(NC(=O)C(Cc1cccc2ccccc12)Cc1cccc2ccccc12)Sc1ccccc1` (centres unmarked) [DNMANHCH(SPh)COSTANHCH2 CH(CH3)CH2 CH3, DNMA-NHCH(SPh)CO-STA-NHCH2 CH(CH3) CH2 CH3], the “Activity % Inhibition @ 10^-6 M” value was 40%.
For “DNMA-NHCH(NHC2 H5)CO-STA-NHCH2 CH(CH3) CH2 CH3 [DNMANHCH(NHC2 H5)COSTANHCH2 CH(CH3)CH2 CH3 (slow isomer)]”, the “Activity % Inhibition @ 10^-6 M” value was 71%.
In the case of `CCC(C)CNC(=O)CC(O)C(CC(C)C)NC(=O)C(N)NC(=O)C(Cc1cccc2ccccc12)Cc1cccc2ccccc12` (single isomer, unassigned) [DNMANHCH(NH2)COSTANHCH2 CH(CH3)CH2 CH3 (fast isomer), DNMA-NHCH(NH2)CO-STA-NHCH2 CH(CH3)CH2 CH3], the “Activity % Inhibition @ 10^-6 M” value is reported as 9%.
For “DNMA-NHCH(NH(CH2)3 NHCSNHCH3)CO-STA-NHCH2 CH(CH3)CH2 CH3”, the “Activity % Inhibition @ 10^-6 M” value was 36%.
For “DNMA-NHCH(NH2)CO-STA-NHCH2 CH(CH3)CH2 CH3 [DNMANHCH(NH2)COSTANHCH2 CH(CH3)CH2 CH3 (slow isomer)]”, the “Activity % Inhibition @ 10^-6 M” value was 54%.
With “DNMA-NHCH(NHCH(CH3)2)CO-STA-NHCH2 CH(CH3)CH2 CH3 [DNMA-NHCH(NHCH(CH3)2)COSTANHCH2 CH(CH3)CH2 CH3 (slow isomer)]” the “Activity % Inhibition @ 10^-6 M” value was 60%.
With `CCOC(NC(=O)C(Cc1cccc2ccccc12)Cc1cccc2ccccc12)C(=O)N[C@@H](CC(C)C)[C@@H](O)CC(=O)NCC(C)CC` (single isomer, unassigned) [DNMANHCH(OC2 H5)COSTANHCH2 CH(CH3)CH2 CH3 (fast isomer), DNMA-NHCH(OC2 H5)CO-STA-NHCH2 CH(CH3)CH2 CH3] the “Activity % Inhibition @ 10^-6 M” value was 100%.
In the case of `CCC(C)CNC(=O)CC(O)C(CC(C)C)NC(=O)C(NC(=O)C(Cc1cccc2ccccc12)Cc1cccc2ccccc12)N(C)C` (single isomer, unassigned) [DNMANHCH(N(CH3)2)COSTANHCH2 CH(CH3)CH2 CH3 (slow isomer), DNMA-NHCH(N(CH3)2 CO-STA-NHCH2 CH(CH3)CH2 CH3], the “Activity % Inhibition @ 10^-6 M” value is reported as 55%.
With `CCC(C)CNC(=O)CC(O)C(CC(C)C)NC(=O)C(NC(C)=O)NC(=O)C(Cc1cccc2ccccc12)Cc1cccc2ccccc12` (centres unmarked) [DNMA-NHCH(NHCOCH3)CO-STA-NHCH2 CH(CH3)CH2 CH3] the “Activity % Inhibition @ 10^-6 M” value was 39%.
For `CCC(C)CNC(=O)C[C@H](O)[C@H](CC(C)C)NC(=O)C(NC(=O)C(Cc1cccc2ccccc12)Cc1cccc2ccccc12)OC` (some centres unmarked) [DNMANHCH(OCH3)COSTANHCH2 CH(CH3)CH2 CH3, DNMA-NHCH(OCH3)CO-STA-NHCH2 CH(CH3)CH2 CH3], the “Activity % Inhibition @ 10^-6 M” value was 90%.
In the case of `CCC(C)CNC(=O)CC(O)C(CC(C)C)NC(=O)C(NC(=O)C(Cc1cccc2ccccc12)Cc1cccc2ccccc12)Nc1ccccc1` (centres unmarked) [DNMANHCH(NHPh)COSTANHCH2 CH(CH3)CH2 CH3, DNMA-NHCH(NHPh)CO-STA-NHCH2 CH(CH3)CH2 CH3], the “Activity % Inhibition @ 10^-6 M” value is reported as 56%.
In the case of `CCOC(=O)NC(NC(=O)C(Cc1cccc2ccccc12)Cc1cccc2ccccc12)C(=O)NC(CC(C)C)C(O)CC(=O)NCC(C)CC` (centres unmarked) [DNMA-NHCH(NHCO2 Et)CO-STA-NHCH2 CH(CH3)CH2 CH3], the “Activity % Inhibition @ 10^-6 M” value is reported as 40%.
`CCC(C)CNC(=O)CC(O)C(CC(C)C)NC(=O)C(NC(=O)C(Cc1cccc2ccccc12)Cc1cccc2ccccc12)SC` (centres unmarked) [DNMANHCH(SCH3)COSTANHCH2 CH(CH3)CH2 CH3, DNMA-NHCH(SCH3)CO-STA-NHCH2 CH(CH3)CH2 CH3] was tested, and the “Activity % Inhibition @ 10^-6 M” value was 86%.
